How the values were obtained:
FLG mRNA = FLG mRNA expression-increasing effect in NHEK cells, real-time PCR (Example 2); assay type: cell-based, human; details: 10 nM, with or without calcium priming
Description: In this example, the FLG mRNA expression-increasing effect of Compound 1 or Compound 2 was confirmed by using NHEK cells.
1) 5×10^4 cells/well of NHEK cells (Invitrogen) were plated on a 24-well plate, and then 500 μl of a culture medium containing a medium for proliferating normal human epidermal keratinocytes (HuMedia-KG2, KURABO INDUSTRIES LTD.) supplemented with hEGF (0.1 ng/ml), insulin (10 μg/ml), hydrocortisone (0.5 μg/ml), gentamycin (50 μg/ml), amphotericin B (50 ng/ml), and bovine brain pituitary extract (BPE) (0.4%, v/v) were added to the plate, and the cells were cultured under the conditions of 37° C. and 5% CO2. Next, after culture under the conditions of the following step 2) or 3), a sample was prepared. […]
4) An extraction reagent (TRIzol™, Invitrogen) was used, and according to the manufacturer's protocol, total RNA was extracted from each of cells treated with the medicament (Compound 1 or Compound 2) in the steps 2) and 3). […] Next, real-time PCR was conducted by using the following primers and SYBR™ Premix Ex Taq (Takara) with a CFX96 real-time PCR instrument (Bio-Rad Laboratories, Inc.) according to the manufacturer's protocol, and the amount of FLG mRNA was measured. […]

FLG promoter = assay: Transcription-activating effect on FLG promoter, luciferase assay in NHEK cells (Example 1); assay type: cell-based, human; details: 1 μM (Comparative Compound 2: 1 μM or 0.1 μM), 3 days
Description: In this example, the transcription activity on FLG promoter of an N-quinolylbenzamide derivative (Compound 1) was confirmed by using neonatal normal human epidermal keratinocytes (NHEK cells). The transcription activity of the FLG promoter was measured by luciferase assay.
1) 1.2×10^5 cells/ml of NHEK cells (KURABO INDUSTRIES LTD.) were plated on a 96-well plate at 80 μl/well (9.6×10^3 cells/well), and 100 μl of a culture medium containing a medium for proliferating normal human epidermal keratinocytes (HuMedia-KG2, KURABO INDUSTRIES LTD.) supplemented with human epidermal growth factor (hEGF) (0.1 ng/ml), insulin (10 μg/ml), hydrocortisone (0.5 μg/ml), gentamycin (50 μg/ml), amphotericin B (50 ng/ml), and bovine brain pituitary extract (BPE) (0.4%, v/v) were added to the plate, and the cells were cultured under the conditions of 37° C. and 5% CO2. […]
4) 3 days after the addition of the medicament in the step 3), reagents for luciferase assay (Bright-Glo™ Luciferase Assay System, Promega Corporation) were used and the luciferase activity was measured according to the manufacturer's protocol. […] After standing at rest for two minutes, 70 μl thereof were subjected to the measurement of the absorbance of luciferase.

Structure (SMILES) | FLG mRNA expression (GAPDH ratio) (FLG mRNA) | transcription activity on FLG promoter (FLG promoter)
CCc1ccc(OCc2ccccc2C(=O)Nc2ccc3nc(C)cc(N)c3c2)cc1.Cl [Compound 1, N-(4-Amino-2-methyl-6-quinolyl)-2-[(4-ethylphenoxy)methyl]benzamide hydrochloride] | increases the FLG mRNA expression | had the transcription activity on FLG promoter
O=C(CCCCCN1C(=O)c2cccc3cccc(c23)C1=O)NO [Comparative Compound 2, 6-(1,3-Dioxo-1H,3H-benzo[de]isoquinolin-2-yl)hexanoic acid hydroxyamide, reference compound] | – | the transcription activity on FLG promoter was observed
CC[C@H](C)[C@H]1O[C@]2(CC[C@@H]1C)C[C@@H]1C[C@@H](C/C=C(\C)[C@@H](O[C@H]3C[C@H](OC)[C@@H](O[C@H]4C[C@H](OC)[C@@H](O)[C@H](C)O4)[C@H](C)O3)[C@@H](C)/C=C/C=C3\CO[C@@H]4[C@H](O)C(C)=C[C@@H](C(=O)O1)[C@]34O)O2 [Compound 2, Ivermectin, reference compound] | increases the FLG mRNA expression | –
